From patent US10005767B2, “Compositions and methods for inhibition of the JAK pathway” (Rigel Pharmaceuticals, Inc., priority 2009, dated 2018) come the findings set out here.

The first assay concerns human primary T-cells, IL-2 stimulated proliferation (JAK-1 and JAK-3 dependent; reported as JAK3 activity). Description: Human primary T-cell proliferation stimulated by IL-2 (Example 3). Type of assay: cell-based. The following applies: Homo sapiens, T-cell, tested under conditions described in Example 3 (IL-2 stimulated human primary T-cell proliferation); read-out: ability to inhibit JAK3 activity, IC50 range (Table V). The method, boiled down: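 Peripheral-blood human T-cells pre-activated via TCR/CD28, IL-2-starved overnight, then cultured 72 h at 37 °C with compound in Yssel's medium containing IL-2 (80 U/mL in cell suspension). Proliferation read as viable-cell ATP by CellTiter-Glo luminescence; reduction versus control taken as JAK pathway inhibition.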
As to `COc1cncc(Nc2ncc(C)c(Nc3ccc4oc(=O)[nH]c4c3)n2)c1` [II-152, N2-(5-methoxypyridin-3-yl)-5-methyl-N4-(2-oxo-2,3-dihydro-1,3-benzoxazol-5-yl)-2,4-pyrimidinediamine], the IC50 is more than 10 µM. Same read-out and setting: under `Cc1cnc(Nc2ccc(N3C[C@@H](C)N(C)C[C@@H]3C)nc2)nc1Nc1ccc2oc(=O)[nH]c2c1` (relative stereo) [II-129, 5-methyl-N4-(2-oxo-2,3-dihydro-1,3-benzoxazol-5-yl)-N2-[2-(trans-2,4,5-trimethylpiperazino)pyridin-5-yl]-2,4-pyrimidinediamine] stands less than 0.5 µM; under `Cc1cnc(Nc2ccc(N3CCN(C)CC3)nc2)nc1Nc1ccc2[nH]c(=O)oc2c1` [II-25, 6-(5-methyl-2-(6-(4-methylpiperazin-1-yl)pyridin-3-ylamino)pyrimidin-4-ylamino)benzo[d]oxazol-2(3H)-one], less than 0.5 µM. The same measure, in the same setting: under `Cc1cnc(Nc2cc(C)c(F)c(C)c2)nc1Nc1cc(C)c2oc(=O)[nH]c2c1` [Compound I-476, 5-(2-(4-fluoro-3,5-dimethylphenylamino)-5-methylpyrimidin-4-ylamino)-7-methylbenzo[d]oxazol-2(3H)-one] stands more than 10 µM. Turning to `Cc1cnc(Nc2cc(Cl)cc(C(F)(F)F)c2)nc1Nc1ccc2oc(=O)[nH]c2c1` [Compound I-497, 5-[2-(3-Chloro-5-trifluoromethyl-phenylamino)-5-methyl-pyrimidin-4-ylamino]-3H-benzooxazol-2-one], the IC50 was more than 10 µM. Regarding `Cc1ccc(Nc2ncc(C)c(Nc3ccc4oc(=O)[nH]c4c3)n2)c(F)c1` [Compound I-514, 5-(2-(2-fluoro-4-methylphenylamino)-5-methylpyrimidin-4-ylamino)benzo[d]oxazol-2(3H)-one], the IC50 is less than 0.5 µM.

On to `Cc1cccc(Nc2ncc(C)c(Nc3ccc4oc(=O)[nH]c4c3)n2)c1` [Compound I-403, 5-(5-Methyl-2-m-tolylamino-pyrimidin-4-ylamino)-3H-benzooxazol-2-one], for which the IC50 is less than 0.5 µM. Still for that read-out and setting: to `N#Cc1ccc(Nc2ncc(F)c(Nc3ccc4oc(=O)[nH]c4c3)n2)cc1` [Compound I-45, N4-(benzo[d]oxazol-2(3H)-on-5-yl)-N2-(4-cyanophenyl)-5-fluoropyrimidine-2,4-diamine] belongs less than 0.5 µM.

Consider `Cc1cnc(Nc2ccc(OCCCN(C)C)c(C(F)(F)F)c2)nc1Nc1ccc2oc(=O)[nH]c2c1` [Compound I-404, 5-{2-[4-(3-Dimethylamino-propoxy)-3-trifluoromethyl-phenylamino]-5-methyl-pyrimidin-4-ylamino}-3H-benzooxazol-2-one], for which the IC50 was less than 0.5 µM.

On to `COc1cc(Nc2ncc(C)c(Nc3ccc4oc(=O)[nH]c4c3)n2)cc(C(C)=O)c1` [Compound I-229, 5-(2-(3-acetyl-5-methoxyphenylamino)-5-methylpyrimidin-4-ylamino)benzo[d]oxazol-2(3H)-one], for which the IC50 was less than 0.5 µM. Same read-out and setting: under `Cc1cnc(Nc2ccc(N3CCC(NC(=O)NCc4ccccc4)C3)nc2)nc1Nc1ccc2oc(=O)[nH]c2c1` (stereo not drawn) [II-98, 1-benzyl-3-(1-(5-(5-methyl-4-(2-oxo-2,3-dihydrobenzo[d]oxazol-5-ylamino)pyrimidin-2-ylamino)pyridin-2-yl)pyrrolidin-3-yl)urea] stands less than 0.5 µM; under `COc1ccc(Nc2ncc(C)c(Nc3ccc4oc(=O)[nH]c4c3)n2)cc1C` [Compound I-258, 5-(2-(4-methoxy-3-methylphenylamino)-5-methylpyrimidin-4-ylamino)benzo[d]oxazol-2(3H)-one], less than 0.5 µM. Same read-out and setting: under `COc1ccc(Nc2ncc(C)c(Nc3ccc4oc(=O)[nH]c4c3)n2)cc1` [Compound I-272, 5-(2-(4-methoxyphenylamino)-5-methylpyrimidin-4-ylamino)benzo[d]oxazol-2(3H)-one] stands less than 0.5 µM; under `Cc1cnc(Nc2ccc(N3C[C@H]4C[C@@H]3CO4)nc2)nc1Nc1ccc2oc(=O)[nH]c2c1` [II-139, 5-methyl-N2-{2-[(1R,4R)-2-oxa-5-azabicyclo[2.2.1]heptan-5-yl]pyridin-5-yl}-N4-(2-oxo-2,3-dihydro-1,3-benzoxazol-5-yl)-2,4-pyrimidinediamine], less than 0.5 µM; under `Cc1cnc(Nc2cnc3onc(C)c3c2)nc1Nc1ccc2oc(=O)[nH]c2c1` [IV-43, 5-methyl-N2-(3-methylisoxazolo[5,4-b]pyridin-5-yl)-N4-(2-oxo-2,3-dihydro-1,3-benzoxazol-5-yl)-2,4-pyrimidinediamine], less than 0.5 µM.

As for `Cc1cnc(Nc2ccc(NC3CCN(C)CC3)nc2)nc1Nc1ccc2oc(=O)[nH]c2c1` [II-35, N4-(benzo[d]oxazol-2(3H)-on-5-yl)-N2-[2-(1-methylpiperidin-4-yl)aminopyridin-5-yl]-5-methylpyrimidine-2,4-diamine], the IC50 was less than 0.5 µM. As to `Cc1cnc(Nc2ccc(N(C)C)nc2)nc1Nc1ccc2oc(=O)[nH]c2c1` [II-1, N4-(benzo[d]oxazol-2(3H)-on-5-yl)-N2-(6-dimethylaminopyridin-3-yl)-5-methylpyrimidine-2,4-diamine], the IC50 was less than 0.5 µM. Still for that read-out and setting: under `Cc1cnc(Nc2ccc(N3CC[C@H](N(C)C)C3)nc2)nc1Nc1ccc2oc(=O)[nH]c2c1` [II-90, (S)-5-(2-(6-(3-(dimethylamino)pyrrolidin-1-yl)pyridin-3-ylamino)-5-methylpyrimidin-4-ylamino)benzo[d]oxazol-2(3H)-one] stands less than 0.5 µM. `Cc1cnc(Nc2ccnc(N3CCNCC3)c2)nc1Nc1ccc2oc(=O)[nH]c2c1` [IV-7, N4-(benzo[d]oxazol-2(3H)-on-5-yl)-N2-[2-(piperazino)pyridin-4-yl]-5-methylpyrimidine-2,4-diamine]: the IC50 was in the range of 5 to 10 µM.

The assay is the same for the next values; noted with them: tested under conditions described in Example 3 (IL-2 stimulated human primary T-cell proliferation); read-out: ability to inhibit JAK3 activity, IC50 range (Table V).
As to `Cc1cnc(Nc2ccc(N3CCOCC3)c(C#N)c2)nc1Nc1ccc2oc(=O)[nH]c2c1` [Compound I-327, N2-(3-cyano-4-morpholino)phenyl-5-methyl-N4-(2-oxo-2,3-dihydro-1,3-benzoxazol-5-yl)-2,4-pyrimidinediamine], the IC50 is less than 0.5 µM. On the same count and under the same terms, under `Cc1cnc(Nc2ccc(OC(F)F)c(F)c2)nc1Nc1ccc2oc(=O)[nH]c2c1` [Compound I-347, N2-(4-difluoromethoxy-3-fluoro)phenyl-5-methyl-N4-(2-oxo-2,3-dihydro-1,3-benzoxazol-5-yl)-2,4-pyrimidinediamine] stands less than 0.5 µM. Same read-out and setting: to `Cc1cnc(Nc2cnc(N3CCN4CCC[C@@H]4C3)c(F)c2)nc1Nc1ccc2oc(=O)[nH]c2c1` [II-113, N4-(benzo[d]oxazolin-2(3H)-one-5-yl)-N2-{2-[(8R)-1,4-diazabicyclo[4.3.0]nonane-1-yl]-3-fluoropyridine-5-yl}-5-methyl-2,4-pyrimidinediamine] belongs less than 0.5 µM; to `Cc1cnc(Nc2ccc(F)c(OC(F)F)c2)nc1Nc1ccc2oc(=O)[nH]c2c1` [Compound I-435, N2-(3-difluoromethoxy-4-fluoro)phenyl-5-methyl-N4-(2-oxo-2,3-dihydro-1,3-benzoxazol-5-yl)-2,4-pyrimidinediamine], less than 0.5 µM.

As to `Cc1cnc(Nc2cccc(S(=O)(=O)NC(C)(C)C)c2)nc1Nc1ccc2oc(=O)[nH]c2c1` [Compound I-25, N4-(benzo[d]oxazol-2(3H)-on-5-yl)-N2-((3-tert-butylaminosulfonyl)phenyl)-5-methylpyrimidine-2,4-diamine], the IC50 was less than 0.5 µM.

A word on the IC50: it is the concentration that inhibits the measured activity by half.
